One data set has as its target T1, HCK (Homo sapiens, UniProt P08631).
T1 construct: purchased Reaction Biology Corp
Kind of data set: P32 radioactive kinase assay (Reaction Biology Corp), HCK activity inhibition. Type of data set: biochemical. Conditions: for remaining activity at 1 µM: 1 μM compound, read-out: % Enzyme Activity (relative to DMSO controls) HCK (1 μM); for remaining activity at 50 µM: 50 μM compound, read-out: % Enzyme Activity (relative to DMSO controls) HCK (50 μM). Here is the method: HCK activity inhibition efficiency for the inhibitors. Inhibiting efficiency was performed in Reaction Biology with Corp P32 radioactive kinase assay, comparing the compounds of the invention with dasatinib for HCK, Bcr-Abl and other binding kinases identified in reference. Most of the HCK inhibitors of the invention tested have IC50 of HCK activity at about 50 uM concentrations.
HCK inhibiting efficiency was performed in Reaction Biology with Corp P32 radioactive kinase assay. Briefly, HCK kinase was delivered into the substrate solution and gently mixed, then compounds in DMSO were added into the kinase reaction mixture by Acoustic technology (Echo550; Nano liter range), and incubated for 20 minutes at room temperature. 33P-ATP was delivered into the reaction mixture to initiate the reaction. The kinase reaction was incubated for 2 hours at room temperature. Reactions were spotted onto P81 ion exchange paper, and detected kinase activity was measured by filter-binding method.

A short description of a further data set: LDH cytotoxicity assay. The following applies: different dosages, up to very high dose of 50 uM. Type of data set: cell-based. The procedure:
LDH cytotoxicity assay for HCK inhibitors cytotoxicity. Toxicity refers to how poisonous or harmful a substance can be. In the context of pharmacology, drug toxicity occurs when a person has accumulated too much of a drug in his bloodstream, leading to adverse effects on the body. Drug toxicity may occur when the dose given is too high or the liver or kidneys are unable to remove the drug from the bloodstream, allowing it to accumulate in the body. Drug toxicity was measured with LDH cytotoxicity assay with different dosages of compounds of the invention.

The test system of another data set is SMAD. The experiment in a line: SMAD binding activity in HK2 cells. The data set is classed as cell-based. From the text:
Inhibition of HCK affects SMAD binding activity. Transforming growth factor-β(TGF-β) is the primary factor that drives fibrosis in most, if not all, forms of chronic kidney disease (CKD). TGF-β1 can induce renal fibrosis via activation of both canonical (Smad-based) and non-canonical (non-Smad-based) signalling pathways, which result in activation of myofibroblasts, excessive production of extracellular matrix (ECM) and inhibition of ECM degradation. The role of Smad proteins in the regulation of fibrosis is complex, with competing profibrotic and antifibrotic actions (including in the regulation of mesenchymal transitioning), and with complex interplay between TGF-β/Smads and other signalling pathways.

For data set [1], the system named is HK2 cells. The experiment in a line: CellTiter 96 AQueous One Solution Cell Proliferation Assay (MTS) in HK2 cells. Type of data set: cell-based. The following applies: Homo sapiens, HK-2, 24 hours treatment, MTS (FIG. 1), read-out: concentration that inhibits 50% of HK2 cell proliferation. The text has this:
HCK inhibitors reduce cell proliferation. Excessive HCK activation is associated with several types of leukemia and enhances cell proliferation and survival by physical association with oncogenic fusion proteins, and with functional interactions with receptor tyrosine kinases. Elevated HCK activity is also observed in many solid malignancies, including breast and colon cancer, and correlates with decreased patient survival rates. HCK enhances the secretion of growth factors and pro-inflammatory cytokines from myeloid cells and promotes macrophage polarization towards a wound healing and tumor-promoting alternatively activated phenotype. Inhibition of HCK activity, therefore, should inhibit cancerous cell's proliferation. Compounds of the invention were measured for inhibition of cell proliferation with CellTiter 96® AQueous One Solution Cell Proliferation Assay (MTS) from Promega in HK2 cells. The compounds of the invention were diluted to serial concentrations. HK2 cells were cultured in 10% FBS and 1% P/S. The cells were treated with the compounds of the invention for 24 hours and then 20 μl/well of CellTiter 96® AQueous One Solution Reagent was added. Values were normalized to the percentages relative to DMSO controls. Values shown are mean±SEM.

Data set [2] relates to HK2 cells. The experiment in a line: Anti-fibrosis effect: mRNA levels of fibrosis markers by RT-PCR in HK2 cells. The data set is classed as cell-based. The following applies: for mRNA levels of fibrosis markers: FIG. 3A and FIG. 3B. The procedure: Anti-fibrosis effect was investigated by fibrosis markers in mRNA level. […] The mRNA levels of Veminten, FN1 and A-Sma were not affected. HK2 cells were treated with HCK inhibitor Examples 4, 7, and 8 at 10 uM and 20 uM overnight and then stimulated with TGF-beta for 8 hours. mRNA-levels of profibrotic markers by RT-PCR (normalized to GAPDH) from mRNA isolated in the cells. Values are mean±SEM; *P=0.05, […], ***P<0.001 between means; one-way ANOVA with Bonferroni multiple comparison test (FIG. 2B). Finally, it was shown that Examples 7, 8, and 13 reduced the mRNA levels of fibrosis markers (FIG. 3A and FIG. 3B).

Where [3] appears, read: second of two replicate columns.
Setting [4] is: HK2 cells treated with 5, 10, 20 uM (FIG. 2A).

Several values for one entry are separate records, joined by “and”; a condition that tells them apart may be missing. Identical values can stand only once. Like-named read-outs stand apart in the source and are kept apart here.

T1 sequence (P08631 whole entry): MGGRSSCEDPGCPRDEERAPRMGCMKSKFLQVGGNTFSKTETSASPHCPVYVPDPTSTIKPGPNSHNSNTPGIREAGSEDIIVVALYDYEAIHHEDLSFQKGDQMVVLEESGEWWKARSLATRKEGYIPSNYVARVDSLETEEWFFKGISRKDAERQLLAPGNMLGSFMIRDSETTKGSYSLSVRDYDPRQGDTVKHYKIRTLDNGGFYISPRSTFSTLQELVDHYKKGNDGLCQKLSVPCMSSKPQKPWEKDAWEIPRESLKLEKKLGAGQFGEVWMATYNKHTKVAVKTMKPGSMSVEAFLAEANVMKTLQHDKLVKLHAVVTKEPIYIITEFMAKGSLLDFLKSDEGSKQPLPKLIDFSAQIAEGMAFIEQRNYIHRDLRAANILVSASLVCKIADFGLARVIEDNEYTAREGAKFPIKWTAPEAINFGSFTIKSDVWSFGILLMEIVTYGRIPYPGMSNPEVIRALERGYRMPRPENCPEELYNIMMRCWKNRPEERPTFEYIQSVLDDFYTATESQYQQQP

Turning to `O=C(Nc1ncc(C(=O)O)s1)c1cc(-c2ccccc2)on1` [Example 18], the values for the remaining activity at 1 µM at HCK (first of two replicate columns) and at HCK (setting [3]) were 107% and 95%, respectively. Also, the remaining activity at 50 µM on HCK (first of two replicate columns) is 106%; on HCK (setting [3]), 113%.

On to `CCOC(=O)c1cnc(NC(C#N)C2=Cc3cc(Cl)cc(Cl)c3OC2c2ccccc2)s1` (centres unmarked) [Example 12], for which, in “LDH cytotoxicity assay”, the “cytotoxicity (LDH assay)” value was “some cytotoxicity at very high dose of 50 uM”. For the same compound, the “SMAD activity in HK2 cells” value in the data set with SMAD was “reduce SMAD activity”. In addition, the IC50 was 10 µM in the data set with HK2 cells [1] and less than 50 µM at HCK. The remaining activity at 1 µM on HCK (first of two replicate columns) was found to be 108%; on HCK (setting [3]) it was 113%. For the same compound, the figures for the remaining activity at 50 µM at HCK (first of two replicate columns) and on HCK (setting [3]) were 75.9% and 79.5%, respectively.

`CCOC(=O)c1cnc(NC(=O)c2ccc(B3OC(C)(C)C(C)(C)O3)cc2)s1` [Example 9]: on HCK (first of two replicate columns), the remaining activity at 1 µM came out at 110% and the remaining activity at 50 µM was determined as 95%. In addition, on HCK (setting [3]), the remaining activity at 1 µM was found to be 115% and the remaining activity at 50 µM was 86.3%.

Take `CCOC(=O)c1cnc(NC(=O)c2cc3cc(Cl)ccc3[nH]c2=O)s1` [Example 8]: in the data set with SMAD, the “SMAD activity in HK2 cells” value is reported as “reduce SMAD activity”. Also, the IC50 with HK2 cells [1] was 0.5 µM; on HCK it was less than 50 µM. Moreover, the “mRNA levels of fibrosis markers” value with HK2 cells [2] is “reduced”. Also, the values for the remaining activity at 1 µM on HCK (first of two replicate columns) and on HCK (setting [3]) were 108% and 116%, respectively. The remaining activity at 50 µM worked out at 41.2% on HCK (first of two replicate columns) and 43.9% at HCK (setting [3]).

`CCOC(=O)c1cnc(NC(=O)c2cc(-c3ccccc3)on2)s1` [Example 17]: the remaining activity at 1 µM on HCK (first of two replicate columns) was found to be 114%; at HCK (setting [3]) it was 116%. Moreover, the figures for the remaining activity at 50 µM on HCK (first of two replicate columns) and at HCK (setting [3]) were 112% and 117%, respectively.

Take `CCOC(=O)c1cnc(NC(=O)C2=Cc3cc(Cl)cc(Cl)c3OC2c2ccccc2)s1` (centres unmarked) [Example 15]: the “SMAD activity in HK2 cells” value in the data set with SMAD is “reduce SMAD activity”. For the same compound, the IC50 in the data set on HK2 cells [1] was 0.5 µM; on HCK it was less than 50 µM. Besides, the remaining activity at 1 µM amounted to 86.6% on HCK (first of two replicate columns) and 83.4% at HCK (setting [3]). The remaining activity at 50 µM at HCK (first of two replicate columns) came out at 6.63%; at HCK (setting [3]) it was 5.97%.

For the compound `CCOC(=O)c1cnc(NC(C#N)c2cc(-c3ccccc3)on2)s1` (centres unmarked) [Example 13], the results for the IC50 in the data set on HK2 cells [1] and at HCK were 10 µM and less than 50 µM, respectively. For the same compound, the “mRNA levels of fibrosis markers” value in the data set with HK2 cells [2] is “reduced”. Also, the remaining activity at 1 µM at HCK (first of two replicate columns) amounted to 109%; at HCK (setting [3]) it was 113%. Besides, the remaining activity at 50 µM at HCK (first of two replicate columns) came to 68.4%; at HCK (setting [3]), 65.5%.

Regarding `O=C(Nc1ncc(C(=O)O)s1)c1cc(Cl)cc(Cl)c1` [Example 21], the figures for the remaining activity at 1 µM at HCK (first of two replicate columns) and at HCK (setting [3]) were 96.2% and 100%, respectively. The figures for the remaining activity at 50 µM at HCK (first of two replicate columns) and at HCK (setting [3]) were 76.9% and 77.7%, respectively.

With `CCOC(=O)c1cnc(NC(=O)c2cc(OC)c(OC)c(OC)c2)s1` [Example 16], at HCK (first of two replicate columns), the remaining activity at 1 µM is 97.5% and the remaining activity at 50 µM was determined as 89.8%. Moreover, on HCK (setting [3]), the remaining activity at 1 µM was found to be 94% and the remaining activity at 50 µM amounted to 85%.

Consider `COc1cc(C(=O)Nc2ncc(C(=O)O)s2)cc(OC)c1OC` [Example 19], for which, at HCK (first of two replicate columns), the remaining activity at 1 µM is 99.2% and the remaining activity at 50 µM was 94.1%. Moreover, at HCK (setting [3]), the remaining activity at 1 µM is 100% and the remaining activity at 50 µM came to 90.7%.

As to `CCOC(=O)c1cnc(NC(=O)c2cc3cc(Cl)ccc3oc2=O)s1` [Example 7], the IC50 is 10 µM in the data set with HK2 cells [1] and less than 50 µM at HCK. The “mRNA levels of fibrosis markers” value in the data set on HK2 cells [2] was “reduced”. Further, the remaining activity at 1 µM amounted to 104% on HCK (first of two replicate columns) and 114% at HCK (setting [3]). Moreover, the remaining activity at 50 µM on HCK (first of two replicate columns) came to 42.8%; at HCK (setting [3]), 45%.

With `CCOC(=O)c1cnc(NC(=O)c2cc(Cl)cc(Cl)c2)s1` [Example 20], the remaining activity at 1 µM at HCK (first of two replicate columns) is 102%; at HCK (setting [3]), 110%. The remaining activity at 50 µM at HCK (first of two replicate columns) came to 101%; on HCK (setting [3]), 97.8%.

Turning to `CCOC(=O)c1cnc(NC(C#N)c2ccc(B3OC(C)(C)C(C)(C)O3)cc2)s1` (centres unmarked) [Example 10], on HCK (first of two replicate columns), the remaining activity at 1 µM was 104% and the remaining activity at 50 µM was 89.1%. In addition, on HCK (setting [3]), the remaining activity at 1 µM was found to be 99.4% and the remaining activity at 50 µM came to 96.5%.

For the compound `CCOC(=O)c1cnc(NC(=O)/C=C/c2ccccc2)s1` [Example 14], the figures for the remaining activity at 1 µM at HCK (first of two replicate columns) and on HCK (setting [3]) were 112% and 118%, respectively. For the same compound, the remaining activity at 50 µM at HCK (first of two replicate columns) was determined as 93.6%; at HCK (setting [3]), 94.2%.

Consider `CCOC(=O)c1cnc(NC(C#N)c2ccc(B(O)O)cc2)s1` (centres unmarked) [Example 11], for which, on HCK (first of two replicate columns), the remaining activity at 1 µM is 93.5% and the remaining activity at 50 µM is 74.5%. At HCK (setting [3]), the remaining activity at 1 µM stood at 103% and the remaining activity at 50 µM was 68.5%.

In the case of `COc1cc(-c2nnc3n2N=C(c2ccc(Br)cc2)CS3)cc(OC)c1OC` [Example 4], in the data set on HK2 cells [2] (setting [4]), the “mRNA levels of Veminten, FN1 and A-Sma” value is listed as “not affected”; the “mRNA levels of fibrosis markers collagen1, Snail, Mmp2 and Slug(Snail2)” value is reported as “affected”. Moreover, the IC50 on HCK was < 50 µM and 30 µM.

These data come from patent US12378235B2, “HCK inhibitors for the treatment of fibrosis and cancer” (Icahn School of Medicine At Mount Sinai, priority 2019, dated 2025).
